Data from patent US20080275049A1, “Methods and Compositions for Upregulation of GATA Activity” (REDDY US THERAPEUTICS, INC., priority 2007, published 2008).

Key:
[1] = system: RCT gene (apolipoprotein E, SRB1 and LCAT); assay: RCT gene expression in pancreatic beta cells; format: cell-based; details: 25 uM, FIG. 7
Procedure: Pancreatic beta cells were incubated with compound A (25 uM). Following treatment total RNA was isolated and RCT gene (apolipoprotein E, SRB1 and LCAT) expression was determined.

GATA1 = assay: GATA knock-down (siRNA), inducible RCT gene expression; format: cell-based, human; details: normal vs GATA-knockdown (siRNA) HepG2 cells; FIG. 2
Procedure: GATA knock-down: HepG2 cells were grown in T-75 flasks prior to study. Transfection of GATA1 specific siRNA in 24-well plates was performed according to the manufacturer's instructions. After 48 hours, RNA was isolated and RT-PCR was performed to examine changes in GATA1 and RCT message levels all normalized to actin. In some experiments, after 48 hours post transfection, media was removed and normal growth media+one of Compounds A-E or DMSO control was added to the wells. RNA isolation and RT-PCR was then performed as stated above.
To determine the role of GATA on inducible RCT gene expression, molecular approaches were used to reduce GATA expression. GATA expression was reduced by siRNA gene silencing. In this test, a candidate compound (Compound A), known for its ability to function as a GATA inducer, was added to both normal and GATA-knockdown cells as described above.

Ob/ob mice = assay: Plasma glucose in ob/ob mice (insulin resistance and diabetes model); format: in vivo; details: 2 and 4 weeks of treatment, FIG. 9
Procedure: Glucose Measurements: Glucose levels were measured at the end of the studies using commercially available kits. Ob/ob mice were treated with control vehicle or vehicle containing Compound A (GATA activator) or vehicle containing pioglitazone (a known antidiabetic drug).

Pancreatic beta cells = assay: Glucose stimulated insulin secretion in pancreatic beta cells; format: cell-based; details: 25 uM, FIG. 8
Procedure: Pancreatic beta cells were incubated with compound A (25 uM). Following treatment glucose stimulated insulin secretion was determined.

cholesterol fed rat = assay: HDL in cholesterol fed rat model; format: in vivo; details: FIG. 5
Procedure: Lipid Measurements: Lipid levels were measured at the end of the studies using commercially available kits.
Atherosclerosis is associated with dyslipidemia (increased LDL and low HDL).

ApoE −/− mice = assay: Lipid content of aortas in ApoE −/− fat fed mice; format: in vivo; details: oral 50 mg/kg/day for 7 days, oil-red O staining, FIG. 6
Procedure: Lipid Content: 8 week old ApoE −/− mice were fed a high fat diet for 2 months and then placed on normal chow. The mice were then orally dosed for 7 days with either CMC-tween (control) or Compound C at 50 mg/kg/day. At the end of the study, the aorta was dissected out, fixed in the O.C.T., sections were prepared, stained with oil-red O, and mounted under cover slips. The oil-red O staining was analyzed using quantitation software and reported as lipid content per lesion area.
Atherosclerosis is also associated with high levels of lipid content in aortas. Compound C was administered to mice according to the method described above and according to conventional animal testing protocol. The lipid content of the aortas was measured.

GATA = GATA luciferase reporter assay (GATA activity); format: cell-based, human; details: HepG2 cells transfected with GATA luciferase construct, treated overnight; FIG. 3
Procedure: GATA activity: HepG2 cells were grown in T-75 flasks prior to study. 24-well plates were seeded in normal medium without antibiotics to yield ˜50% confluency. The following day, cells were transfected according to the manufacturer's protocol and allowed to incubate overnight. The next day, the media was replaced and cells were treated with vehicle (DMSO) or one of Compounds A-E overnight. Cells were lysed by adding lysis buffer and assayed for luciferase activity.
An in vitro high-throughput assay based on luciferase activity to screen for and identify agents that upregulate GATA activity was developed. HepG2 cells were grown in T-75 flasks prior to study. 24-well plates were seeded in normal medium without antibiotics to yield ˜50% confluency. The following day, cells were transfected (Roche, FuGENE 6 transfection reagent, cat#11815091001) with a GATA luciferase construct (Panomics, cat#LR0027) according to the manufacturer's protocol and allowed to incubate overnight. The next day, the media was replaced and cells were treated with vehicle (DMSO) or GATA inducer candidate compounds (Compounds A-E) overnight. Cells were lysed by adding lysis buffer (Promega, cat#E1500) and assayed for luciferase activity (Perkin Elmer Envision 2101 Multi-Label Reader).

RCT genes = assay: Real time quantitative PCR screen for RCT gene induction; format: cell-based, human; details: cells treated, total RNA, FIG. 4
Procedure: PT-PCR Screen: Human liver cells (HepG2) were grown in T-75 flasks prior to study. 96-well plates were seeded, and the following day, cells were washed with PBS and treated with serum free media for 24 hours. The next day, cells were treated with vehicle (DMSO) or with one of Compounds A-E overnight. RNA was isolated and RT-PCR was performed to examine changes in RCT gene message levels normalized to actin.
An in vitro high-throughput assay based on real time quantitative PCR was developed to screen for and identify agents that simultaneously upregulate RCT genes. Cells were treated with pharmaceutical agents, some of which are GATA inducers as described above. Total RNA was isolated and used in the real time assay.

CC(=O)c1ccc(Nc2nc(-c3ccccc3)cc(N3CCC(O)CC3)n2)cc1 [Compound A]
expression of RCT genes (apolipoprotein E, SRB1 and LCAT) [1]: increased expression of RCT genes | ability to induce RCT gene expression after GATA knock-down (GATA1): blunting of Compound A's ability to induce RCT gene expression | plasma glucose (Ob/ob mice): significantly lower levels of plasma glucose | glucose stimulated insulin secretion (Pancreatic beta cells): increased secretion of insulin | HDL (cholesterol fed rat): significantly increased HDL

CS(=O)(=O)c1ccc(Nc2nc(-c3ccccc3)cc(N3CCC(O)CC3)n2)cc1 [Compound C]
lipid content in aortas (ApoE −/− mice): significantly lowered lipid content

CCN1CCCC1CNc1nc(Nc2ccc(OC)c(F)c2)nc(N2CCN(CC(=O)N3CCCC3)CC2)n1 (stereo not shown) [D]
GATA activity (luciferase activity) (GATA): not shown to induce GATA activity | RCT gene expression (RCT genes): did not induce RCT gene induction

COc1ccc(Nc2nc(NC3CCCCCC3)nc(N(C)C3CCN(C)CC3)n2)cc1F [E]
GATA activity (luciferase activity) (GATA): not shown to induce GATA activity | RCT gene expression (RCT genes): did not induce RCT gene induction
